The source of these data is ChEMBL document CHEMBL1201862, “PubChem BioAssay data set” (2004).

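Exposure lasted 48 hours, with cells grown in 96-well plates and compounds tested at five concentrations. Here, GI50 denotes the concentration required for 50% inhibition of growth.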 The source made the active and inactive calls. Rule as the data show it: active = GI50 up to about 1.1 µM and inactive = higher.

Holding throughout (test): NCI anticancer screen, dose series, 48 h
Experiment [1] deals with XF498.
In experiment [2] the test system is RXF 631.
Experiment [3] deals with LXFL 529.
Experiment [4] deals with HOP-18.
Experiment [5] deals with SNB-78.
In experiment [6] the test system is KM-20L2.
The subject of experiment [7] is DLD-1.
In experiment [8] the test system is DMS-114.
Experiment [9] has as its system DMS-273.

Take `Nc1nc(-c2ccccc2)cc(-c2ccccc2O)n1`: the GI50 in experiment [1] was > 100 µM (inactive); in [2], 34.1 µM (inactive); in experiment [3], 30.8 µM (inactive); in experiment [4] it was > 100 µM (inactive); in [5], 76.9 µM (inactive); in experiment [6], 30.2 µM (inactive). In addition, the results for the GI50 in experiment [7], in [8] and in [9] were 23.9 µM (inactive), 35.2 µM (inactive) and 32 µM (inactive), respectively.
`CCCC/C=C1/CCC(CN(C)C)C1=O` (stereo unspecified): the GI50 is 1.65 µM (inactive) in [2]; 0.625 µM (active) in experiment [3]; 2.22 µM (inactive) in [4]; 2.3 µM (inactive) in [5]; 2.54 µM (inactive) in experiment [6]; 0.863 µM (active) in experiment [7]. Moreover, the GI50 in experiment [8] is 1.29 µM (inactive); in [9] it was 2.71 µM (inactive).
Consider `CCc1ccccc1NC(=O)/C(=N/O)C(C)=O`, for which the GI50 in experiment [1], in [2], in [3], in experiment [4], in experiment [5] and in experiment [6] was > 100 µM (inactive) in each case. Besides, the GI50 in experiment [7], in [8] and in [9] was > 100 µM (inactive) throughout.
In the case of `CC1CCCP(=O)(c2ccccc2)CCC1` (stereo unspecified), the GI50 was > 100 µM (inactive) in experiment [1]; > 100 µM (inactive) in experiment [2]; > 100 µM (inactive) in experiment [3]; 69 µM (inactive) in [4]; > 100 µM (inactive) in experiment [5]; > 100 µM (inactive) in [6]. The GI50 in [7], in experiment [8] and in experiment [9] was > 100 µM (inactive) throughout.
For the compound `O=C(Cc1nc2ccccc2s1)C(=O)Nc1cccc(Cl)c1`, the GI50 in [1], in experiment [2], in [3], in experiment [5], in experiment [6] and in experiment [7] was > 100 µM (inactive) throughout. The GI50 in [8] and in experiment [9] was > 100 µM (inactive) in each case.
`Cc1cccc(C)c1NC(=O)C1C(=O)N(c2c(C)cccc2C)C(=O)/C1=N\N` (stereo unspecified): the GI50 in experiment [2], in [3], in experiment [4], in experiment [6], in experiment [7] and in experiment [9] was > 100 µM (inactive) throughout.
Take `COc1cccc(NC(=O)CC(=O)N2NC(C)C(/N=N/c3cccc(C(=O)O)c3)C2=O)c1` (stereo unspecified): the GI50 in experiment [2] was > 100 µM (inactive); in [3] it was > 100 µM (inactive); in experiment [4] it was 17.9 µM (inactive); in experiment [5], > 100 µM (inactive); in [6], > 100 µM (inactive); in experiment [7] it was > 100 µM (inactive). For the same compound, the GI50 in experiment [8] and in [9] was > 100 µM (inactive) in each case.
In the case of `CCOC(=O)/C(C(C)=O)=C1/N[C@H](C(=O)OCC)CS1`, the GI50 in experiment [1], in [2], in [3], in [4], in [5] and in [6] was > 100 µM (inactive) each time. Further, the GI50 in [7] is > 100 µM (inactive).
On to `CC1=CC2CC(C)=C(CC[C@]3(C)CC[C@H]([C@@H](C)C(=O)O)OO3)C(C)(C)C2CC1` (stereo partly specified), for which the GI50 is 1.48 µM (inactive) in experiment [2]; 0.193 µM (active) in experiment [3]; 0.158 µM (active) in experiment [4]; 1.51 µM (inactive) in [5]; 1.29 µM (inactive) in [6]; 0.201 µM (active) in [7]. Moreover, the values for the GI50 in experiment [8] and in experiment [9] were 0.376 µM (active) and 0.528 µM (active), respectively.
For `O=CC1=CCCC2(C1)OCCO2`, the GI50 in [1], in [2], in experiment [3], in [5], in experiment [7] and in [8] was > 100 µM (inactive) throughout. In [9], the GI50 was > 100 µM (inactive).
Take `O=S1(=O)CCC2=CC(C(F)(F)F)=CC(C(F)(F)F)=CN21`: the GI50 was 1.79 µM (inactive) in [1]; 1.95 µM (inactive) in experiment [2]; 0.435 µM (active) in experiment [3]; 3.35 µM (inactive) in experiment [4]; 1.85 µM (inactive) in [5]; 2.11 µM (inactive) in experiment [6]. Besides, the GI50 was 0.339 µM (active) in experiment [7], 1.37 µM (inactive) in [8] and 0.767 µM (active) in [9].
`CC1(C)N=C(c2ccccn2)C(c2ccccn2)=NC1(C)C`: the GI50 in [1], in experiment [2], in experiment [3], in experiment [5], in [6] and in [7] was > 100 µM (inactive) each time. Also, the GI50 in [8] and in experiment [9] was > 100 µM (inactive) throughout.
For `COc1ccccc1NC(=O)CC(=O)N1N=C(c2ccccc2)C(/N=N/c2ccc(Cl)cc2)C1=O` (stereo unspecified), the GI50 in experiment [1] is 38.5 µM (inactive); in [2], 44.1 µM (inactive); in experiment [3], 47.6 µM (inactive); in experiment [5], > 100 µM (inactive); in [6] it was 71.8 µM (inactive); in experiment [7], 49.7 µM (inactive). Besides, the GI50 in [8] is 70.1 µM (inactive); in experiment [9], 34.8 µM (inactive).
For `COc1cccc2nc3c(C(=O)NCCN(C)C)cccc3nc12`, the GI50 in experiment [1] is 0.986 µM (active); in experiment [2], 10.8 µM (inactive); in experiment [3] it was 11.1 µM (inactive); in [4], 29.5 µM (inactive); in [5], 12.9 µM (inactive); in experiment [6] it was 8.38 µM (inactive). In addition, the GI50 was 5.68 µM (inactive) in [7], 8.07 µM (inactive) in experiment [8] and 7.36 µM (inactive) in experiment [9].
In the case of `COC(=O)[C@]12CCC(C)[C@H](C)[C@H]1C1=CCC3[C@@]4(C)CC[C@H](OC(C)=O)C(C)(C)C4CC[C@@]3(C)C1(C)C(O)C2` (stereo partly specified), the GI50 in experiment [1] was 27.9 µM (inactive); in experiment [3] it was 77.3 µM (inactive); in [4], > 100 µM (inactive); in experiment [5], > 100 µM (inactive); in experiment [6], > 100 µM (inactive); in experiment [7], > 100 µM (inactive). The results for the GI50 in experiment [8] and in experiment [9] were 61.7 µM (inactive) and > 100 µM (inactive), respectively.
